Assay results published in US20230144436A1, “MUSCLE TARGETING COMPLEXES AND USES THEREOF FOR TREATING MYOTONIC DYSTROPHY” (Dyne Therapeutics, Inc., priority 2020, published 2023).

Tested on: DMPK
Experiment: DMPK knockdown by transfected antisense oligonucleotides in DM1 C15 myotubes at 0.5 nM and 50 nM
Type: cell-based
Conditions: 72 hours; for Normalized DMPK Remaining: relative to vehicle control = 1.00
Summary of the method: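 DMPK remaining was measured by qPCR 72 h post-transfection, normalized to lipofectamine-only vehicle wells (=1.00). Oligonucleotides were delivered at 0.5 and 50 nM final to DM1 C15 myoblasts differentiated seven days into myotubes, in triplicate.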

[1] = 0.5 nM oligonucleotide, qPCR, relative to vehicle control
[2] = 50 nM oligonucleotide, qPCR, relative to vehicle control

Substance	Percent DMPK Reduction [1] [%]	Normalized DMPK Remaining (0.5 nM oligonucleotide, qPCR)	Percent DMPK Reduction [2] [%]	Normalized DMPK Remaining (50 nM oligonucleotide, qPCR)	Percent DMPK Reduction (0.5 nM oligonucleotide) [%]	Normalized DMPK Remaining (0.5 nM oligonucleotide)	Percent DMPK Reduction (50 nM oligonucleotide) [%]	Normalized DMPK Remaining (50 nM oligonucleotide)
254 (UUGUCGGGUUUGAUGUCCCU; chemistry not given here) [compound 254]	34.16	0.66	55.56	0.44	–	–	–	–
472 (AAGGGAUGUGUCCGGAAGUC; chemistry not given here) [compound 472]	–	–	–	–	10.37	0.90	73.52	0.26
253 (UGCUCAGCAGUGUCAGCAGG; chemistry not given here) [compound 253]	27.08	0.73	65.78	0.34	–	–	–	–
456 (CCUCAGCCUGGCCGAAAGAA; chemistry not given here) [compound 456]	–	–	–	–	16.83	0.83	63.99	0.36
442 (AUGUUGUCGGGUUUGAUGUC; chemistry not given here) [compound 442]	–	–	–	–	16.93	0.83	52.83	0.47
468 (CGAGAGCAGCGCAAGUGAGG; chemistry not given here) [compound 468]	–	–	–	–	-2.19	1.02	37.11	0.63
307 (GGGUUUGAUGUCCCUGUGCA; chemistry not given here) [compound 307]	40.12	0.60	62.61	0.37	–	–	–	–
291 (AUACUCCAUGACCAGGUACA; chemistry not given here) [compound 291]	23.07	0.77	56.84	0.43	–	–	–	–
433 (GCGGAUGGCCUCCAUCUCCC; chemistry not given here) [compound 433]	–	–	–	–	21.25	0.79	71.77	0.28
428 (UUGAUGUCCCUGUGCACGU; chemistry not given here) [compound 428]	–	–	–	–	6.92	0.93	43.07	0.57
436 (CCACUUCAGCUGUUUCAUCC; chemistry not given here) [compound 436]	–	–	–	–	22.40	0.78	64.20	0.36
350 (ACUUGCUCAGCAGUGUCAGC; chemistry not given here) [compound 350]	27.84	0.72	60.71	0.39	–	–	–	–
364 (AGCGCCCACCAGUCACACUC; chemistry not given here) [compound 364]	30.36	0.70	63.67	0.36	–	–	–	–
461 (CGGAGACCAUCCCAGUCGAG; chemistry not given here) [compound 461]	–	–	–	–	14.08	0.86	79.93	0.20
373 (GGGACAGACAAUAAAUACCG; chemistry not given here) [compound 373]	27.19	0.73	50.50	0.49	–	–	–	–
259 (CAGCUGCGUGAUCCACCGCC; chemistry not given here) [compound 259]	19.03	0.81	68.34	0.32	–	–	–	–

Substance	Percent DMPK Reduction [1] [%]	Normalized DMPK Remaining (0.5 nM oligonucleotide, qPCR)	Percent DMPK Reduction [2] [%]	Normalized DMPK Remaining (50 nM oligonucleotide, qPCR)	Percent DMPK Reduction (0.5 nM oligonucleotide) [%]	Normalized DMPK Remaining (0.5 nM oligonucleotide)	Percent DMPK Reduction (50 nM oligonucleotide) [%]	Normalized DMPK Remaining (50 nM oligonucleotide)
444 (GCGUCACCUCGGCCUCAGCC; chemistry not given here) [compound 444]	–	–	–	–	20.02	0.80	81.27	0.19
464 (UCCUUGUAGUGGACGAUCUU; chemistry not given here) [compound 464]	–	–	–	–	12.96	0.87	84.87	0.15
275 (AGCGCCUCCGAUAGGCCAGG; chemistry not given here) [compound 275]	21.19	0.79	61.91	0.38	–	–	–	–
258 (AACUUGCUCAGCAGUGUCAG; chemistry not given here) [compound 258]	19.81	0.80	52.64	0.47	–	–	–	–
415 (AGGGCCUUUUAUUCGCGAGG; chemistry not given here) [compound 415]	–	–	–	–	13.63	0.86	66.43	0.34
319 (ACACCUGGCCCGUCUGCUUC; chemistry not given here) [compound 319]	33.00	0.67	55.40	0.45	–	–	–	–
357 (CCUCAGCCUCUGCCGCAGGG; chemistry not given here) [compound 357]	10.87	0.89	55.22	0.45	–	–	–	–
335 (UCCCCAAACUUGCUCAGCAG; chemistry not given here) [compound 335]	5.73	0.94	44.67	0.55	–	–	–	–
263 (GGAUGGCCUCCAUCUCCCGG; chemistry not given here) [compound 263]	24.93	0.75	60.77	0.39	–	–	–	–
324 (GCCUCAGCCUCUGCCGCAGG; chemistry not given here) [compound 324]	16.37	0.84	46.42	0.54	–	–	–	–
333 (AUGGCAUACACCUGGCCCGU; chemistry not given here) [compound 333]	14.31	0.86	49.63	0.50	–	–	–	–
427 (UUGUUCAUGAUCUUCAUGGC; chemistry not given here) [compound 427]	–	–	–	–	14.13	0.86	45.23	0.55
394 (GAGCCUCUGCCUCGCGUAGU; chemistry not given here) [compound 394]	–	–	–	–	18.77	0.81	77.78	0.22
384 (UGGACGAUCUUGCCAUAGGU; chemistry not given here) [compound 384]	–	–	–	–	19.20	0.81	42.52	0.57
279 (CAUCUCGGCCGGAAUCCGCU; chemistry not given here) [compound 279]	20.21	0.80	59.40	0.41	–	–	–	–
358 (GUGUCCGGAAGUCGCCUGCU; chemistry not given here) [compound 358]	22.99	0.77	73.65	0.26	–	–	–	–
